In US20260297060A1, “COMPOUNDS FOR THE DEGRADATION OF MUTANT BRAF” (C4 THERAPEUTICS, INC., priority 2023, published 2026):

Tested on: A375 human melanoma xenografts
Assay: In vivo therapeutic efficacy in A375 human melanoma xenografts (tumor volume, T/C, TGI), Example 14
Parameters: species or system human tumor in female BALB/c nude mice
Details: for Tumor volume: mean ± SEM; for T/C / TGI: PG-D21
Experimental: Agents were tested in the A375 human melanoma xenografts. Compound 26 and Compound 141 were administered to BALB/c nude mice bearing A375 tumors from PG-DO and dosed via PO twice a day (BID) or third a day (TIP) or dosed P daily (QD) from PG-D. Dabrafenib was administered to BALB/c nude mice bearing A375 tumors from PG-D1 and dosed via P daily (QD). Compound 26 was dosed at 1.5 mg/kg (QD), 2 mg/kg (TID), 3 mg/kg (BID), 6 mg/kg (QD) and 10 mg/kg (BID) for 21 days. Compound 141 was dosed at 0.75 mg/kg (BID), 1 mg/kg (TID), 1.5 mg/kg (BID), 3 mg/kg (QD) and 5 mg/kg (BID) for 21 days. Dabrafenib was dosed at 100 mg/kg for 21 days. This study was non-GLP.
One hundred and thirty-eight female BALB/c nude Mus Musculus mice procured from Shanghai Lingchang Biological Science and Technology Co., LTD between the ages of six to eight weeks and with body weight between eighteen and twenty-two grams were used for the study. A spare mouse was also procured.
The A375 tumor cells were maintained in vitro in DMEM medium supplemented with 10% fetal bovine serum and 1% Penicillin-Streptomycin at 37° C. in an atmosphere of 5% CO2 in air. The tumor cells were routinely sub-cultured twice weekly. The cells growing in an exponential growth phase were harvested and counted for tumor inoculation.
Each mouse was inoculated subcutaneously at the right flank with A375 cells (5×10^6) in 0.2 mL of PBS supplemented with Matrigel (PBS: Matrigel=1:1) for tumor development. Animals were grouped for efficacy study on day 15 after tumor inoculation when the average tumor volume reached 220 mm^3. The test articles administration and the animal numbers in each group are shown in the above experimental Table 75.
At the time of routine monitoring, the animals were checked daily for any effects of tumor growth and treatments on normal behavior such as mobility, food and water consumption (by looking only), body weight gain/loss (body weights were measured twice weekly), eye/hair matting and any other abnormal effect as stated in the protocol. Death and observed clinical signs were recorded on the basis of the numbers of animals within each subset.
Prior to the onset of drug treatment, mice were measured for tumor size in two dimensions using a caliper, and the tumor volume (mm^3) was calculated using formula V=0.5 a×b^2 where a and b are the long and short diameters of the tumor in mm, respectively. Mice were randomized into different treatment groups based on the tumor volume.
The major endpoint was to see if the tumor growth could be delayed or mice could be cured. The tumor size was then used for calculations of T/C value. The T/C value (in percent) is an indication of antitumor effectiveness; T and C are the mean volumes of the treated and control groups, respectively on specified day.
TGI was calculated for each group using the formula: TGI (%)=[1−(Ti−T0)/(Ci−C0)]×100; Ti is the average tumor volume of a treatment group on a given day, T0 is the average tumor volume of the treatment group on the day of treatment start, Ci is the average tumor volume of the vehicle control group on the same day with Ti, and C0 is the average tumor volume of the vehicle group on the day of treatment start.
A one-way ANOVA followed by Dunnett's multiple comparison test was performed to compare tumor volume among vehicle group (Group 1) and treatment groups (Group 2-Group 12). All data were analyzed using GraphPad Prism, ns indicates p>0.05, * indicates p<0.05, ** indicates p<0.01, *** indicates p<0.001 and **** indicates p<0.0001.
Tumor growth inhibition of Compound 26, Compound 141 and dabrafenib in the treatment of female BALB/c nude mice bearing A375 xenografts was calculated based on tumor volume measured on […]. TGI and T/C were calculated respectively and the data are detailed in Table 82.

[1] = Compound 26, 1.5 mg/kg p.o. BID × 21 days

For CCN(C)S(=O)(=O)Nc1ccc(F)c(Oc2ccc3ncn([C@H]4COC5(CCN(C6CC7(C6)CN(c6cc8c(cc6F)c(N6CCC(=O)NC6=O)nn8C)C7)CC5)C4)c(=O)c3c2)c1C#N [Compound 26, (3R)-3-[6-[2-cyano-3-[[ethyl(methyl)sulfamoyl]amino]-6-fluoro-phenoxy]-4-oxo-quinazolin-3-yl]-8-[2-[3-(2,4-dioxohexahydropyrimidin-1-yl)-5-fluoro-1-methyl-indazol-6-yl]-2-azaspiro[3.3]heptan-6-yl]-1-oxa-8-azaspiro[4.5]decane], the Tumor volume (3 mg/kg p.o. BID x 21 days, day 46 (dosing-free regrowth)) was 1050 ± 191 mm^3, the Tumor volume (3 mg/kg p.o. BID x 21 days, day 49 (dosing-free regrowth)) was 1328 ± 237 mm^3 and the Tumor volume (3 mg/kg p.o. BID x 21 days, day 53 (dosing-free regrowth)) was 1789 ± 341 mm^3. For the same compound, the Tumor volume (3 mg/kg p.o. BID x 21 days, day 56 (dosing-free regrowth)) was 2242 ± 453 mm^3, the “Tumor Size on PG-D21 (Mean ± SEM)” value (3 mg/kg p.o. BID × 21 days) was 48 ± 9 mm^3 and the T/C (3 mg/kg p.o. BID × 21 days) was 2.5%. It also gave a TGI (3 mg/kg p.o. BID × 21 days) of 110.4%, a Tumor volume (6 mg/kg p.o. QD x 21 days, day 0) of 220 ± 16 mm^3 and a Tumor volume (6 mg/kg p.o. QD x 21 days, day 4) of 243 ± 16 mm^3. The Tumor volume (6 mg/kg p.o. QD x 21 days, day 7) was 158 ± 10 mm^3, the Tumor volume (6 mg/kg p.o. QD x 21 days, day 11) was 101 ± 7 mm^3 and the Tumor volume (6 mg/kg p.o. QD x 21 days, day 14) was 62 ± 4 mm^3. For the same compound, the Tumor volume (6 mg/kg p.o. QD x 21 days, day 18) was 49 ± 7 mm^3, the Tumor volume (6 mg/kg p.o. QD x 21 days, day 21) was 54 ± 13 mm^3 and the Tumor volume (6 mg/kg p.o. QD x 21 days, day 25 (dosing-free regrowth)) was 137 ± 74 mm^3. The Tumor volume (6 mg/kg p.o. QD x 21 days, day 28 (dosing-free regrowth)) was 230 ± 109 mm^3, the Tumor volume (6 mg/kg p.o. QD x 21 days, day 32 (dosing-free regrowth)) was 335 ± 129 mm^3 and the Tumor volume (6 mg/kg p.o. QD x 21 days, day 35 (dosing-free regrowth)) was 478 ± 161 mm^3. For the same compound, the Tumor volume (6 mg/kg p.o. QD x 21 days, day 39 (dosing-free regrowth)) was 751 ± 185 mm^3, the Tumor volume (6 mg/kg p.o. QD x 21 days, day 42 (dosing-free regrowth)) was 894 ± 208 mm^3 and the Tumor volume (6 mg/kg p.o. QD x 21 days, day 46 (dosing-free regrowth)) was 1363 ± 315 mm^3. For the same compound, the Tumor volume (6 mg/kg p.o. QD x 21 days, day 49 (dosing-free regrowth)) was 1802 ± 396 mm^3, the Tumor volume (6 mg/kg p.o. QD x 21 days, day 53 (dosing-free regrowth)) was 1863 ± 377 mm^3 and the Tumor volume (6 mg/kg p.o. QD x 21 days, day 56 (dosing-free regrowth)) was 2305 ± 461 mm^3. For the same compound, the “Tumor Size on PG-D21 (Mean ± SEM)” value (6 mg/kg p.o. QD × 21 days) was 54 ± 13 mm^3, the T/C (6 mg/kg p.o. QD × 21 days) was 2.9% and the TGI (6 mg/kg p.o. QD × 21 days) was 110.0%. The Tumor volume (10 mg/kg p.o. BID x 21 days, day 0) was 220 ± 15 mm^3, the Tumor volume (10 mg/kg p.o. BID x 21 days, day 4) was 126 ± 10 mm^3 and the Tumor volume (10 mg/kg p.o. BID x 21 days, day 7) was 65 ± 6 mm^3. It also gave a Tumor volume (10 mg/kg p.o. BID x 21 days, day 11) of 42 ± 4 mm^3, a Tumor volume (10 mg/kg p.o. BID x 21 days, day 14) of 26 ± 3 mm^3 and a Tumor volume (10 mg/kg p.o. BID x 21 days, day 18) of 20 ± 2 mm^3. For the same compound, the Tumor volume (10 mg/kg p.o. BID x 21 days, day 21) was 17 ± 2 mm^3, the Tumor volume (10 mg/kg p.o. BID x 21 days, day 25 (dosing-free regrowth)) was 17 ± 2 mm^3 and the Tumor volume (10 mg/kg p.o. BID x 21 days, day 28 (dosing-free regrowth)) was 29 ± 3 mm^3. For the same compound, the Tumor volume (10 mg/kg p.o. BID x 21 days, day 32 (dosing-free regrowth)) was 62 ± 16 mm^3, the Tumor volume (10 mg/kg p.o. BID x 21 days, day 35 (dosing-free regrowth)) was 112 ± 34 mm^3 and the Tumor volume (10 mg/kg p.o. BID x 21 days, day 39 (dosing-free regrowth)) was 253 ± 70 mm^3. The Tumor volume (10 mg/kg p.o. BID x 21 days, day 42 (dosing-free regrowth)) was 357 ± 91 mm^3, the Tumor volume (10 mg/kg p.o. BID x 21 days, day 46 (dosing-free regrowth)) was 550 ± 131 mm^3 and the Tumor volume (10 mg/kg p.o. BID x 21 days, day 49 (dosing-free regrowth)) was 711 ± 168 mm^3. For the same compound, the Tumor volume (10 mg/kg p.o. BID x 21 days, day 53 (dosing-free regrowth)) was 1021 ± 215 mm^3, the Tumor volume (10 mg/kg p.o. BID x 21 days, day 56 (dosing-free regrowth)) was 1128 ± 250 mm^3 and the “Tumor Size on PG-D21 (Mean ± SEM)” value (10 mg/kg p.o. BID × 21 days) was 17 ± 2 mm^3. For the same compound, the T/C (10 mg/kg, p.o., BID × 21 days) was 0.9%, the TGI (10 mg/kg, p.o., BID × 21 days) was 112.2% and the minimal effective dose (A-375, po, tumor bearing mouse model, BID, read-out: maximally efficacious minimal dose (MED)) was 3 mg/kg. The “Tumor Size on PG-D21 (Mean ± SEM)” value [1] was 400 ± 70 mm^3, the T/C [1] was 21.2% and the TGI [1] was 89.2%.
